Format in all cases: in vivo
One series concerns Leptochloa chinensis. Kind of series: Test Example 3: herbicidal effect by application to foliage (Wagner pot, water depth 0.1-0.5 cm). Conditions: Nineteenth Table. The method, boiled down:
(§1)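 A small sprayer delivered the diluted emulsion uniformly to foliage at the chosen rate in g/ha, 14 days after sowing in Wagner pots held at 25–30 °C. Outcome: 0–5 herbicidal-ratio score read three weeks post-treatment.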

The subject of the next series is Cyperus difformis. The series is described as above. Conditions: Nineteenth Table. The method, boiled down: as §1
Series [1] relates to Echinochloa crus-galli var. crus-galli. The description is as above. Conditions: Nineteenth Table. An outline of the steps:
as §1

The test system of the next series is Scirpus juncoides. Kind of series: Test Example 2: herbicidal activity, application during weed generation in submerged conditions. Conditions: Eighteenth Table. The method, boiled down: (§2)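 Scored three weeks post-application on a 0–5 scale (5: ≥90% herbicidal ratio, almost withered; 0: ≤5%). Plants raised from mixed-sown seed in submerged alluvial soil (4 cm water), 25–30 °C greenhouse; water-diluted emulsion applied onto water surface at one- to two-leaf stage, dose in g/ha.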

Series [2] has as its system Echinochloa oryzacola Vasing. Described as above. Conditions: Eighteenth Table. An outline of the steps: as §2
In a further series the test system is Monochoria vaginalis. The series is described as above. To be noted: Eighteenth Table. An outline of the steps:
as §2

In another series the test system is Stellaria media. Kind of series: Test Example 4: herbicidal effect by application to foliage (diluvial soil, plastic box). Conditions: for P (Stellaria media) herbicidal effect: application to foliage, application herbicide amount 320 g/ha. An outline of the steps:
(§3)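 Seeds sown in sterilized diluvial soil, covered ~1.5 cm, grown 14 days in greenhouse at 25° C. to 30° C. Emulsion formulation diluted in water to set rate (g/ha) and sprayed onto stems and leaves. Effect scored visually 3 weeks later on 0–5 scale (5 = ≥90% herbicidal ratio, 0 = ≤5%).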

The next series deals with Amaranthus retroflexus. The description is as above. To be noted: for N (Amaranthus retroflexus) herbicidal effect: application to foliage, application herbicide amount 320 g/ha. An outline of the steps:
as §3

The test system of series [3] is directly sowed Oryza sativa. Kind of series: Test Example 3: effect on crop by application to foliage (Wagner pot, water depth 0.1-0.5 cm). To be noted: Nineteenth Table. An outline of the steps: as §1
[4] abbreviates: application herbicide amount 320 g/ha.
Setting [5] is: application herbicide amount 400 g/ha.
The mark [6] stands for this setting: application to foliage, application herbicide amount 288 g/ha.
[7] abbreviates: application herbicide amount 288 g/ha.
[8] abbreviates: Application herbicide amount 288 g/ha, foliage application.

The structures appear in SMILES notation.

For `Cc1nnc(NC(=O)c2ccc(C(F)(F)F)n3c(C4=NOC(C)(C)C4)nnc23)o1` [1-029], the “D (Leptochloa chinensis) herbicidal ratio grade” value with Leptochloa chinensis (setting [4]) is 5 (Herbicidal ratio of 90% or more (almost completely withered)). Moreover, in the series with Cyperus difformis (setting [4]), the “E (Cyperus difformis) herbicidal ratio grade” value was 4 (Herbicidal ratio of 70% or more and less than 90%). The “H (Echinochloa crus-galli var. crus-galli) herbicidal ratio grade” value in [1] (setting [4]) is 4 (Herbicidal ratio of 70% or more and less than 90%). For the same compound, the “B (Scirpus juncoides) herbicidal ratio grade” value in the series with Scirpus juncoides (setting [4]) was 2 (Herbicidal ratio of 20% or more and less than 40%). The “A (Echinochloa oryzicola Vasing.) herbicidal ratio grade” value in [2] (setting [4]) is 3 (Herbicidal ratio of 40% or more and less than 70%). The “C (Monochoria vaginalis) herbicidal ratio grade” value in the series on Monochoria vaginalis (setting [4]) was 3 (Herbicidal ratio of 40% or more and less than 70%). In addition, the “P (Stellaria media) herbicidal effect” value in the series with Stellaria media was 5 (Herbicidal ratio of 90% or more (almost completely withered)). In addition, the “N (Amaranthus retroflexus) herbicidal effect” value in the series on Amaranthus retroflexus is 5 (Herbicidal ratio of 90% or more (almost completely withered)). The “b (directly sowed Oryza sativa) effect on crop grade” value in series [3] (setting [4]) is 4 (Herbicidal ratio of 70% or more and less than 90%).
For the compound `CCC(CC)c1nnc2c(C(=O)Nc3nnc(C)o3)ccc(C(F)(F)F)n12` [1-011], the “D (Leptochloa chinensis) herbicidal ratio grade” value in the series with Leptochloa chinensis (setting [5]) is listed as 5 (Herbicidal ratio of 90% or more (almost completely withered)). Moreover, in the series on Cyperus difformis (setting [5]), the “E (Cyperus difformis) herbicidal ratio grade” value is listed as 5 (Herbicidal ratio of 90% or more (almost completely withered)). Further, the “H (Echinochloa crus-galli var. crus-galli) herbicidal ratio grade” value in [1] (setting [5]) is listed as 5 (Herbicidal ratio of 90% or more (almost completely withered)). The “B (Scirpus juncoides) herbicidal ratio grade” value in the series on Scirpus juncoides (setting [4]) is 3 (Herbicidal ratio of 40% or more and less than 70%). For the same compound, the “A (Echinochloa oryzicola Vasing.) herbicidal ratio grade” value in [2] (setting [4]) is 5 (Herbicidal ratio of 90% or more (almost completely withered)). For the same compound, in the series on Monochoria vaginalis (setting [4]), the “C (Monochoria vaginalis) herbicidal ratio grade” value was 3 (Herbicidal ratio of 40% or more and less than 70%). Further, in the series with Stellaria media, the “P (Stellaria media) herbicidal effect” value is given as 5 (Herbicidal ratio of 90% or more (almost completely withered)). Further, the “N (Amaranthus retroflexus) herbicidal effect” value in the series with Amaranthus retroflexus was 5 (Herbicidal ratio of 90% or more (almost completely withered)). Also, the “b (directly sowed Oryza sativa) effect on crop grade” value in series [3] (setting [5]) was 0 (Herbicidal ratio of 5% or less (almost no effect)).
Regarding `Cc1nnc(NC(=O)c2ccc(C(F)(F)F)n3c(C(C)C)nnc23)o1` [1-004, 3-Isopropyl-N-(5-methyl-1,3,4-oxadiazol-2-yl)-5-(trifluoromethyl)-[1,2,4]triazolo[4,3-a]pyridine-8-carboxamide], in the series on Leptochloa chinensis (setting [5]), the “D (Leptochloa chinensis) herbicidal ratio grade” value is listed as 5 (Herbicidal ratio of 90% or more (almost completely withered)). For the same compound, the “E (Cyperus difformis) herbicidal ratio grade” value with Cyperus difformis (setting [5]) is recorded as 5 (Herbicidal ratio of 90% or more (almost completely withered)). Besides, the “H (Echinochloa crus-galli var. crus-galli) herbicidal ratio grade” value in series [1] (setting [5]) is 4 (Herbicidal ratio of 70% or more and less than 90%). Also, the “B (Scirpus juncoides) herbicidal ratio grade” value with Scirpus juncoides (setting [4]) was 3 (Herbicidal ratio of 40% or more and less than 70%). The “A (Echinochloa oryzicola Vasing.) herbicidal ratio grade” value in series [2] (setting [4]) was 4 (Herbicidal ratio of 70% or more and less than 90%). For the same compound, in the series on Monochoria vaginalis (setting [4]), the “C (Monochoria vaginalis) herbicidal ratio grade” value is 4 (Herbicidal ratio of 70% or more and less than 90%). Also, the “P (Stellaria media) herbicidal effect” value in the series with Stellaria media was 5 (Herbicidal ratio of 90% or more (almost completely withered)). For the same compound, the “N (Amaranthus retroflexus) herbicidal effect” value with Amaranthus retroflexus was 4 (Herbicidal ratio of 70% or more and less than 90%). In series [3] (setting [5]), the “b (directly sowed Oryza sativa) effect on crop grade” value is recorded as 0 (Herbicidal ratio of 5% or less (almost no effect)).
As for `CC(C)c1nnc2c(C(=O)Nc3nnco3)ccc(C(F)(F)F)n12` [1-050], the “D (Leptochloa chinensis) herbicidal ratio grade” value with Leptochloa chinensis (setting [4]) is reported as 5 (Herbicidal ratio of 90% or more (almost completely withered)). In addition, in the series with Cyperus difformis (setting [4]), the “E (Cyperus difformis) herbicidal ratio grade” value was 5 (Herbicidal ratio of 90% or more (almost completely withered)). In addition, in series [1] (setting [4]), the “H (Echinochloa crus-galli var. crus-galli) herbicidal ratio grade” value is on record as 5 (Herbicidal ratio of 90% or more (almost completely withered)). Moreover, in the series with Scirpus juncoides (setting [4]), the “B (Scirpus juncoides) herbicidal ratio grade” value was 4 (Herbicidal ratio of 70% or more and less than 90%). Further, in series [2] (setting [4]), the “A (Echinochloa oryzicola Vasing.) herbicidal ratio grade” value is reported as 5 (Herbicidal ratio of 90% or more (almost completely withered)). Further, in the series with Monochoria vaginalis (setting [4]), the “C (Monochoria vaginalis) herbicidal ratio grade” value was 3 (Herbicidal ratio of 40% or more and less than 70%). For the same compound, in the series on Stellaria media, the “P (Stellaria media) herbicidal effect” value was 5 (Herbicidal ratio of 90% or more (almost completely withered)). Besides, the “N (Amaranthus retroflexus) herbicidal effect” value with Amaranthus retroflexus is on record as 5 (Herbicidal ratio of 90% or more (almost completely withered)). The “b (directly sowed Oryza sativa) effect on crop grade” value in series [3] (setting [4]) was 1 (Herbicidal ratio of 5% or more and less than 20%).
As for `Cc1nnc(NC(=O)c2ccc(C(F)(F)F)n3c(C[S+]([O-])CC(F)(F)F)nnc23)o1` (stereo not drawn) [1-038], the “D (Leptochloa chinensis) herbicidal ratio grade” value in the series on Leptochloa chinensis (setting [4]) is 5 (Herbicidal ratio of 90% or more (almost completely withered)). In addition, in the series on Cyperus difformis (setting [4]), the “E (Cyperus difformis) herbicidal ratio grade” value is 4 (Herbicidal ratio of 70% or more and less than 90%). In series [1] (setting [4]), the “H (Echinochloa crus-galli var. crus-galli) herbicidal ratio grade” value is 5 (Herbicidal ratio of 90% or more (almost completely withered)). Besides, the “B (Scirpus juncoides) herbicidal ratio grade” value in the series with Scirpus juncoides (setting [4]) is 1 (Herbicidal ratio of 5% or more and less than 20%). In addition, the “A (Echinochloa oryzicola Vasing.) herbicidal ratio grade” value in [2] (setting [4]) was 1 (Herbicidal ratio of 5% or more and less than 20%). Further, the “C (Monochoria vaginalis) herbicidal ratio grade” value in the series on Monochoria vaginalis (setting [4]) is 0 (Herbicidal ratio of 5% or less (almost no effect)). Further, the “P (Stellaria media) herbicidal effect” value in the series with Stellaria media was 5 (Herbicidal ratio of 90% or more (almost completely withered)). Moreover, the “N (Amaranthus retroflexus) herbicidal effect” value with Amaranthus retroflexus was 5 (Herbicidal ratio of 90% or more (almost completely withered)). Moreover, in series [3] (setting [4]), the “b (directly sowed Oryza sativa) effect on crop grade” value is 2 (Herbicidal ratio of 20% or more and less than 40%).
As for `C=CCSc1nnc2c(C(=O)Nc3nnco3)ccc(C(F)(F)F)n12` [1-128], the “D (herbicidal effect grade)” value in the series with Leptochloa chinensis (setting [6]) is 3 (Herbicidal ratio of 40% or more and less than 70%). Also, in the series with Cyperus difformis (setting [6]), the “E (herbicidal effect grade)” value is 3 (Herbicidal ratio of 40% or more and less than 70%). Also, in [1] (setting [6]), the “H (herbicidal effect grade)” value is 4 (Herbicidal ratio of 70% or more and less than 90%). Moreover, the “B (Scirpus juncoides) herbicidal ratio grade” value in the series with Scirpus juncoides (setting [7]) was 3 (Herbicidal ratio of 40% or more and less than 70%). Also, the “A (Echinochloa oryzicola Vasing.) herbicidal ratio grade” value in series [2] (setting [7]) was 1 (Herbicidal ratio of 5% or more and less than 20%). The “C (Monochoria vaginalis) herbicidal ratio grade” value in the series with Monochoria vaginalis (setting [7]) was 0 (Herbicidal ratio of 5% or less (almost no effect)). The “P (Stellaria media) herbicidal effect grade” value in the series with Stellaria media (setting [8]) is on record as 5 (Herbicidal ratio of 90% or more (almost completely withered)). For the same compound, in the series on Amaranthus retroflexus (setting [8]), the “N (Amaranthus retroflexus) herbicidal effect grade” value was 3 (Herbicidal ratio of 40% or more and less than 70%). For the same compound, the “b (effect on crop grade)” value in [3] (setting [6]) is recorded as 0 (Herbicidal ratio of 5% or less (almost no effect)).
`CCOCc1nnc2c(C(=O)Nc3nnc(C)o3)ccc(C(F)(F)F)n12` [1-027]: the “D (Leptochloa chinensis) herbicidal ratio grade” value in the series on Leptochloa chinensis (setting [4]) is 5 (Herbicidal ratio of 90% or more (almost completely withered)). In addition, in the series with Cyperus difformis (setting [4]), the “E (Cyperus difformis) herbicidal ratio grade” value is 5 (Herbicidal ratio of 90% or more (almost completely withered)). Moreover, in series [1] (setting [4]), the “H (Echinochloa crus-galli var. crus-galli) herbicidal ratio grade” value is on record as 5 (Herbicidal ratio of 90% or more (almost completely withered)). In addition, the “B (Scirpus juncoides) herbicidal ratio grade” value in the series on Scirpus juncoides (setting [4]) is 3 (Herbicidal ratio of 40% or more and less than 70%). Also, the “A (Echinochloa oryzicola Vasing.) herbicidal ratio grade” value in [2] (setting [4]) was 4 (Herbicidal ratio of 70% or more and less than 90%). The “C (Monochoria vaginalis) herbicidal ratio grade” value with Monochoria vaginalis (setting [4]) is 3 (Herbicidal ratio of 40% or more and less than 70%). Besides, the “P (Stellaria media) herbicidal effect” value in the series with Stellaria media is 5 (Herbicidal ratio of 90% or more (almost completely withered)). The “N (Amaranthus retroflexus) herbicidal effect” value with Amaranthus retroflexus was 5 (Herbicidal ratio of 90% or more (almost completely withered)). Moreover, in series [3] (setting [4]), the “b (directly sowed Oryza sativa) effect on crop grade” value was 3 (Herbicidal ratio of 40% or more and less than 70%).
Turning to `CCc1nnc(NC(=O)c2ccc(C(F)(F)F)n3c(C(C)C)nnc23)o1` [1-005], the “D (Leptochloa chinensis) herbicidal ratio grade” value in the series with Leptochloa chinensis (setting [5]) is listed as 5 (Herbicidal ratio of 90% or more (almost completely withered)). Further, in the series with Cyperus difformis (setting [5]), the “E (Cyperus difformis) herbicidal ratio grade” value is 5 (Herbicidal ratio of 90% or more (almost completely withered)). In addition, the “H (Echinochloa crus-galli var. crus-galli) herbicidal ratio grade” value in [1] (setting [5]) is 2 (Herbicidal ratio of 20% or more and less than 40%). The “B (Scirpus juncoides) herbicidal ratio grade” value with Scirpus juncoides (setting [4]) was 1 (Herbicidal ratio of 5% or more and less than 20%). In addition, the “A (Echinochloa oryzicola Vasing.) herbicidal ratio grade” value in series [2] (setting [4]) is on record as 5 (Herbicidal ratio of 90% or more (almost completely withered)). In addition, in the series on Monochoria vaginalis (setting [4]), the “C (Monochoria vaginalis) herbicidal ratio grade” value is recorded as 0 (Herbicidal ratio of 5% or less (almost no effect)). Besides, the “P (Stellaria media) herbicidal effect” value with Stellaria media is 1 (Herbicidal ratio of 5% or more and less than 20%). In addition, in the series on Amaranthus retroflexus, the “N (Amaranthus retroflexus) herbicidal effect” value was 3 (Herbicidal ratio of 40% or more and less than 70%). The “b (directly sowed Oryza sativa) effect on crop grade” value in series [3] (setting [5]) is recorded as 0 (Herbicidal ratio of 5% or less (almost no effect)).
